Source: patent US6221914A, “Sulfonamide bridging compounds that inhibit tryptase activity” (Array Biopharma Inc., priority 1998, dated 2001)

System: antigen-induced airway hyperresponsiveness in guinea pigs
Test: Guinea pig airway hyperresponsiveness inhibition (ovalbumin-sensitized, histamine bronchoprovocation)
Format: in vivo, guinea pig (male Hartley)
Conditions: 1 mg/kg, i.t., 1 hour before antigen challenge; histamine response 6 h after antigen
Protocol: The compounds of the invention were tested for their ability to inhibit hyperresponsiveness in a guinea pig airway hyperresponsiveness screen according to the following protocol:
Male Hartley guinea pigs (Charles River Laboratories Inc., Wilmington, Mass.) were sensitized to ovalbumin by intraperitoneal injection with a 0.5 mL solution of 10 μg ovalbumin and 10 mg aluminum hydroxide in phosphate-buffered saline. […] Seven to nine weeks after the initial injection, the animals were used to evaluate antigen-induced guinea pig airway responses.
In order to evaluate antigen-induced airway hyperresponsiveness in guinea pigs, a baseline histamine bronchoprovocation was initially conducted in unrestrained animals. Guinea pigs (450-600 g) were placed in a whole body plethysmograph (Buxco Electronics, Troy, N.Y.). The animals were exposed to 5 second bursts of histamine aerosol generated by a DeVilbis ultrasonic nebulizer (Somerset, Pa.). […] Three days after the histamine baseline determination, the guinea pigs were again placed in the whole body plethysmograph and challenged with a 3 second aerosolized burst of 0.1% ovalbumin in phosphate-buffered saline. Six hours after antigen exposure, the development of hyperresponsiveness was evaluated by repeating the histamine bronchoprovocation. Comparisons between treatment groups were based on areas under the histamine dose response curves (AUC).
Test compounds were administered by intratracheal instillation at a dose of 1 mg/kg in PBS (pH 7.2), 1 hour before the antigen challenge. After anesthetizing a guinea pig with inhaled methoxyflurane, an endotracheal tube (18 gauge Teflon® sheath) was visually passed into the trachea with the aid of a fiberoptic light source. Test agents (or PBS for control animals) was dosed through the tube followed by a bolus of air to facilitate dispersion.
Two-way analysis of variance (ANOVA) followed by the Fisher PLSD test was used to evaluate areas under the curve ("AUC") for histamine dose responses in guinea pigs. Significance was accepted for p<0.05.

Row | Structure (SMILES) | Hyperresponsiveness AUC % Inhibition [%]
1 | N=C(N)c1cccc(S(=O)(=O)NCc2ccc(OCCCCCOc3ccc(CNS(=O)(=O)c4cccc(C(=N)N)c4)cc3)cc2)c1 [Example 41, 1,5-Bis-{4-[(3-carbamimidoyl-benzenesulfonylamino)-methyl]-phenoxy}-pentane] | 95
2 | N=C(N)c1cccc(S(=O)(=O)NCc2ccc(OCCCCOc3ccc(CNS(=O)(=O)c4cccc(C(=N)N)c4)cc3)cc2)c1 [Example 47, 1,4-Bis-{4-[(3-carbamimidoyl-benzenesulfonylamino)-methyl]-phenoxy}-butane] | 29
3 | N=C(N)c1ccc(S(=O)(=O)NCc2ccc(OCCCOc3ccc(CNS(=O)(=O)c4ccc(C(=N)N)cc4)cc3)cc2)cc1 [Example 50, 1,3-Bis-{4-[(4-carbamimidoyl-benzenesulfonylamino)-methyl]-phenoxy}-propane] | 50
4 | N=C(N)c1ccc(C(=O)NCc2ccc(OCCCCCOc3ccc(CNC(=O)c4ccc(C(=N)N)cc4)cc3)cc2)cc1 [Example 54, 1,5-Bis-{4-[(4-carbamimidoyl-benzenecarbonylamino)-methyl]-phenoxy}-pentane] | 53
5 | N=C(N)c1cccc(C(=O)NCc2ccc(OCCCCCOc3ccc(CNC(=O)c4cccc(C(=N)N)c4)cc3)cc2)c1 [Example 55, 1,5-Bis-{4-[(3-carbamimidoyl-benzenecarbonylamino)-methyl]-phenoxy}-pentane] | 107
6 | N=C(N)c1ccc(C(=O)NCc2ccc(OCCCCCCOc3ccc(CNC(=O)c4ccc(C(=N)N)cc4)cc3)cc2)cc1 [Example 56, 1,6-Bis-{4-[(4-carbamimidoyl-benzenecarbonylamino)-methyl]-phenoxy}-hexane] | 62
7 | N=C(N)c1ccc2[nH]c(CC(=O)NCc3ccc(OCCCCCOc4ccc(CNC(=O)Cc5nc6cc(C(=N)N)ccc6[nH]5)cc4)cc3)nc2c1 [Example 108] | 68
